In US20200369630A1, “HERBICIDALLY ACTIVE 3-PHENYL-5-TRIFLUOROMETHYLISOXAZOLINE-5-CARBOXAMIDES OF CYCLOPENTYLCARBOXYLIC ACIDS AND ESTERS” (Bayer Aktiengesellschaft, priority 2017, published 2020):

How the values were obtained:
Type in all cases: in vivo
[1] = system: HORMU: Hordeum murinum; experiment: Post-emergence herbicidal action; details: rated visually after about 3 weeks
Protocol: (§1) [table] Seeds of monocotyledonous and dicotyledonous weeds and crop plants are placed in sandy loam in plastic or wood-fiber pots, covered with soil and cultivated in a greenhouse under controlled growth conditions. 2 to 3 weeks after sowing, the test plants are treated at the one-leaf stage. The compounds of the invention, formulated in the form of wettable powders (WP) or as emulsion concentrates (EC), are then sprayed onto the green parts of the plants as aqueous suspension or emulsion with addition of 0.5% additive at a water application rate of […] (converted). After the test plants had been kept in the greenhouse under optimum growth conditions for about 3 weeks, the activity of the preparations is rated visually in comparison to untreated controls. For example, 100% activity=the plants have died, 0% activity=like control plants.

[2] = system: STEME: Stellaria media; experiment: Post-emergence herbicidal action
Protocol: as §1

[3] = system: AMARE: Amaranthus retroflexus; experiment: Post-emergence herbicidal action; details: rated visually after about 3 weeks
Protocol: as §1

[4] = system: ALOMY: Alopecurus myosuroides; experiment: Post-emergence herbicidal action; details: rated visually after about 3 weeks
Protocol: as §1

[5] = system: LOLRI: Lolium rigidum; experiment: Post-emergence herbicidal action; details: rated visually after about 3 weeks
Protocol: as §1

[6] = system: VERPE: Veronica persica; experiment: Post-emergence herbicidal action; details: Table C2, post-emergence, dosage 320 (0.32 kg of active substance per hectare), rated visually after about 3 weeks
Protocol: as §1

[7] = system: ECHCG: Echinochloa crus-galli; experiment: Post-emergence herbicidal action; details: Table C2, post-emergence, dosage 320 (0.32 kg of active substance per hectare), rated visually after about 3 weeks
Protocol: as §1

[8] = system: AVEFA: Avena fatua; experiment: Post-emergence herbicidal action; details: Table C2, post-emergence, dosage 320 (0.32 kg of active substance per hectare), rated visually after about 3 weeks
Protocol: as §1

[9] = system: POLCO: Polygonum convolvulus; experiment: Post-emergence herbicidal action; details: rated visually after about 3 weeks
Protocol: as §1

[10] = system: ABUTH: Abutilon theophrasti; experiment: Post-emergence herbicidal action; details: Second Table C3, superiority with respect to WO 2012/130798, post-emergence, 80 g/ha
Protocol: as §1

[11] = system: HORMU: Hordeum murinum; experiment: Pre-emergence herbicidal action; details: Table C1, pre-emergence, 80 g/ha, scored visually after about 3 weeks
Text: (§2) Seeds of monocotyledonous and dicotyledonous weed plants and crop plants are placed in plastic or wood fiber pots and covered with soil. The compounds of the invention, formulated in the form of wettable powders (WP) or as emulsion concentrates (EC), are then applied onto the surface of the covering soil as aqueous suspension or emulsion with addition of 0.5% additive at a water application rate of […] (converted). After the treatment, the pots are placed in a greenhouse and kept under good growth conditions for the trial plants. After about 3 weeks, the effect of the preparations is scored visually in comparison with untreated controls as percentages. For example, 100% activity=the plants have died, 0% activity=like control plants. [table]

[12] = system: STEME: Stellaria media; experiment: Pre-emergence herbicidal action
Text: as §2

[13] = system: MATIN: Matricaria inodora; experiment: Pre-emergence herbicidal action; details: Table C1, pre-emergence, 80 g/ha, scored visually after about 3 weeks
Text: as §2

[14] = system: AMARE: Amaranthus retroflexus; experiment: Pre-emergence herbicidal action
Text: as §2

[15] = system: ALOMY: Alopecurus myosuroides; experiment: Pre-emergence herbicidal action
Text: as §2

[16] = system: VIOTR: Viola tricolor; experiment: Pre-emergence herbicidal action
Text: as §2

[17] = system: PHBPU: Ipomoea purpurea; experiment: Pre-emergence herbicidal action; details: Table C1, pre-emergence, 80 g/ha, scored visually after about 3 weeks
Text: as §2

[18] = system: LOLRI: Lolium rigidum; experiment: Pre-emergence herbicidal action; details: Table C1, pre-emergence, 80 g/ha, scored visually after about 3 weeks
Text: as §2

[19] = system: VERPE: Veronica persica; experiment: Pre-emergence herbicidal action
Text: as §2

[20] = system: ECHCG: Echinochloa crus-galli; experiment: Pre-emergence herbicidal action; details: Table C1, pre-emergence, 80 g/ha, scored visually after about 3 weeks
Text: as §2

[21] = system: AVEFA: Avena fatua; experiment: Pre-emergence herbicidal action
Text: as §2

[22] = system: POLCO: Polygonum convolvulus; experiment: Pre-emergence herbicidal action; details: Table C1, pre-emergence, 80 g/ha, scored visually after about 3 weeks
Text: as §2

[23] = system: SETVI: Setaria viridis; experiment: Pre-emergence herbicidal action
Text: as §2

[24] = system: ABUTH: Abutilon theophrasti; experiment: Pre-emergence herbicidal action; details: Table C1, pre-emergence, 80 g/ha, scored visually after about 3 weeks
Text: as §2

[25] = Table C2, post-emergence, dosage 320 (0.32 kg of active substance per hectare)
[26] = Second Table C3, superiority with respect to WO 2012/130798, post-emergence, 80 g/ha
[27] = Table C2, post-emergence, dosage 320 (0.32 kg of active substance per hectare), rated visually after about 3 weeks
[28] = Second Table C4, superiority with respect to WO 2012/130798, pre-emergence, 20 g/ha
[29] = Table C1, pre-emergence, 80 g/ha, scored visually after about 3 weeks
[30] = Table C4, post-emergence, 320 g/ha

CCOC(=O)C1CCC(NC(=O)C2(C(F)(F)F)CC(c3cc(F)cc(F)c3)=NO2)C1 (mixture of isomers) [Example I-29]
Herbicidal action against [%] HORMU [1, 25]: 90% | Herbicidal action against [%] STEME [2, 26]: 80% | Herbicidal action against [%] STEME [2, 27]: 80% | Herbicidal action against [%] AMARE [3, 25]: 80% | Herbicidal action against [%] ALOMY [4, 25]: 90% | Herbicidal action against [%] LOLRI [5, 25]: 90% | Herbicidal action against [%] VERPE [6]: 80% | Herbicidal action against [%] ECHCG [7]: 80% | Herbicidal action against [%] AVEFA [8]: 90% | Herbicidal action against [%] POLCO [9, 25]: 90% | Herbicidal action against [%] ABUTH [10]: 80% | Herbicidal action against [%] HORMU [11]: 90% | Herbicidal action against [%] STEME [12, 28]: 90% | Herbicidal action against [%] STEME [12, 29]: 90% | Herbicidal action against [%] MATIN [13]: 30% | Herbicidal action against [%] AMARE [14, 28]: 100% | Herbicidal action against [%] AMARE [14, 29]: 100% | Herbicidal action against [%] ALOMY [15, 28]: 90% | Herbicidal action against [%] ALOMY [15, 29]: 100% | Herbicidal action against [%] VIOTR [16, 28]: 90% | Herbicidal action against [%] VIOTR [16, 29]: 90% | Herbicidal action against [%] PHBPU [17]: 80% | Herbicidal action against [%] LOLRI [18]: 100% | Herbicidal action against [%] VERPE [19, 28]: 90% | Herbicidal action against [%] VERPE [19, 29]: 100% | Herbicidal action against [%] ECHCG [20]: 90% | Herbicidal action against [%] AVEFA [21, 28]: 70% | Herbicidal action against [%] AVEFA [21, 29]: 80% | Herbicidal action against [%] POLCO [22]: 80% | Herbicidal action against [%] SETVI [23, 28]: 90% | Herbicidal action against [%] SETVI [23, 29]: 100% | Herbicidal action against [%] ABUTH [24]: 70%

O=C(OCCCl)C1CCC(NC(=O)C2(C(F)(F)F)CC(c3cc(F)cc(F)c3)=NO2)C1 (mixture of isomers) [Example I-99]
Herbicidal action against [%] HORMU [1, 25]: 90% | Herbicidal action against [%] STEME [2, 27]: 90% | Herbicidal action against [%] AMARE [3, 25]: 90% | Herbicidal action against [%] ALOMY [4, 25]: 90% | Herbicidal action against [%] LOLRI [5, 25]: 100% | Herbicidal action against [%] VERPE [6]: 90% | Herbicidal action against [%] ECHCG [7]: 90% | Herbicidal action against [%] AVEFA [8]: 90% | Herbicidal action against [%] POLCO [9, 25]: 80% | Herbicidal action against [%] HORMU [11]: 100% | Herbicidal action against [%] STEME [12, 29]: 100% | Herbicidal action against [%] MATIN [13]: 80% | Herbicidal action against [%] AMARE [14, 29]: 100% | Herbicidal action against [%] ALOMY [15, 29]: 100% | Herbicidal action against [%] VIOTR [16, 29]: 100% | Herbicidal action against [%] PHBPU [17]: 90% | Herbicidal action against [%] LOLRI [18]: 100% | Herbicidal action against [%] VERPE [19, 29]: 100% | Herbicidal action against [%] ECHCG [20]: 90% | Herbicidal action against [%] AVEFA [21, 29]: 90% | Herbicidal action against [%] SETVI [23, 29]: 100% | Herbicidal action against [%] ABUTH [24]: 80%

CCOC(=O)C1CCC(NC(=O)C2(C)CC(c3cc(F)cc(F)c3)=NO2)C1 (centres unmarked) [Example 6.736, reference compound]
Herbicidal action against [%] STEME [2, 26]: 50% | Herbicidal action against [%] ABUTH [10]: 60% | Herbicidal action against [%] STEME [12, 28]: 50% | Herbicidal action against [%] AMARE [14, 28]: 0% | Herbicidal action against [%] ALOMY [15, 28]: 70% | Herbicidal action against [%] VIOTR [16, 28]: 0% | Herbicidal action against [%] VERPE [19, 28]: 70% | Herbicidal action against [%] AVEFA [21, 28]: 50% | Herbicidal action against [%] SETVI [23, 28]: 20%

CCOC(=O)[C@@H]1CC[C@H](NC(=O)[C@@]2(C(F)(F)F)CC(c3cc(F)cc(F)c3)=NO2)C1 [Example I-39, ethyl (1R,3S)-3-({[(5R)-3-(3,5-difluorophenyl)-5-(trifluoromethyl)-4,5-dihydro-1,2-oxazol-5-yl]carbonyl}amino)cyclopentanecarboxylate]
Herbicidal action against [%] HORMU [1, 30]: 100% | Herbicidal action against [%] AMARE [3, 30]: 80% | Herbicidal action against [%] ALOMY [4, 30]: 100% | Herbicidal action against [%] LOLRI [5, 30]: 90% | Herbicidal action against [%] POLCO [9, 30]: 80% | Herbicidal action against [%] HORMU [11]: 90% | Herbicidal action against [%] MATIN [13]: 90% | Herbicidal action against [%] AMARE [14, 29]: 100% | Herbicidal action against [%] ALOMY [15, 29]: 100% | Herbicidal action against [%] VIOTR [16, 29]: 100% | Herbicidal action against [%] PHBPU [17]: 80% | Herbicidal action against [%] LOLRI [18]: 100% | Herbicidal action against [%] ECHCG [20]: 100% | Herbicidal action against [%] AVEFA [21, 29]: 100% | Herbicidal action against [%] POLCO [22]: 100% | Herbicidal action against [%] SETVI [23, 29]: 100% | Herbicidal action against [%] ABUTH [24]: 70%
